We go through 40 compounds from US6878742B2, “Heterocyclic sulfonamide inhibitors of beta amyloid production” (Wyeth, priority 2000, dated 2005).

Where “and” joins values, the source holds several entries; their conditions need not be identical. Equal values may be shown once.

The first assay deals with amyloid precursor protein (APP) proteolysis. The assay can be described thus: Repressor Release Assay (RRA). Type of assay: cell-based. The conditions noted are these: Conc 10 μg/mL; luciferase activity over diluent control. In a few lines:
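This repressor release assay monitors APP proteolysis in mammalian cells. Transfected CHO-K1 cells (pRSVO-luc plus APP-lacI) were seeded at […], treated with compound diluted in 25 mM Hepes, then incubated 36-48 hours. After replacing media with PBS and adding LucLite lysis/substrate buffer, luminescence was measured, and fold increase over diluent control was calculated.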
Turning to `O=S(=O)(N[C@H](CO)CC1CCCCC1)c1ccc(Cl)s1` [Example 95], the “APPI Fold Increase” value was determined as 1.9 fold.

Staying with this assay, now noted: Conc 10 μg/mL; luciferase activity over diluent control; read-out: APPI Fold Increase.
For the compound `C=CC(O)[C@@H](NS(=O)(=O)c1ccc(Cl)s1)[C@@H](C)CC` (stereo partly drawn) [Example 127, 5-chloro-N-{(S)-2-hydroxy-1-[(S)-1-methylpropyl]but-3-enyl}thiophene-2-sulfonamide], the fold induction at 10 µg/mL is 4.27. Turning to `C=CCCC(O)[C@@H](NS(=O)(=O)c1cccs1)[C@@H](C)CC` (stereo partly drawn) [Example 151, N-{(S)-2-hydroxy-1-[(S)-1-methylpropyl]hex-5-enyl}thiophene-2-sulfonamide], the fold induction at 10 µg/mL was determined as 1.94. Still for that read-out and setting: under `CC[C@H](C)[C@H](NS(=O)(=O)c1cccs1)C(O)c1ccc(OC)cc1` (stereo partly drawn) [Example 149, N-{(S,S)-1-[hydroxy(4-methoxyphenyl)methyl]-2-methylbutyl}thiophene-2-sulfonamide] stands 1.62; under `CC[C@H](C)[C@H](NS(=O)(=O)c1ccc(Cl)s1)C(O)c1ccc(Cl)cc1` (stereo partly drawn) [Example 131, 5-chloro-N-{(S,S)-1-[(4-chlorophenyl)(hydroxy)methyl]-2-methylbutyl}thiophene-2-sulfonamide], 3.64. For `CC[C@H](C)[C@H](NS(=O)(=O)c1ccc(Cl)s1)C(O)CCC1OCCCO1` (stereo partly drawn) [Example 136, 5-chloro-N-{(S)-4-(1,3-dioxan-2-yl)-2-hydroxy-1-[(S)-1-methylpropyl]butyl}thiophene-2-sulfonamide], the fold induction at 10 µg/mL was 2.13. For the compound `CC[C@H](C)[C@H](NS(=O)(=O)c1cccs1)C(O)c1ccc(N(C)C)cc1` (stereo partly drawn) [Example 154, N-{(S,S)-1-[[4-(dimethylamino)phenyl](hydroxy)methyl]-2-methylbutyl}thiophene-2-sulfonamide], the fold induction at 10 µg/mL stood at 4.23. On the same count and under the same terms, the result for `CC[C@H](C)[C@H](NS(=O)(=O)c1cccs1)C(O)C(C)(C)C` (stereo partly drawn) [Example 145, N-{(S)-2-hydroxy-3,3-dimethyl-1-[(S)-1-methylpropyl]butyl}thiophene-2-sulfonamide] reads 1.72.

Staying with this assay, now noted: Conc 20 μg/mL; luciferase activity over diluent control.
Consider `CC[C@H](C)[C@@H](CO)NS(=O)(=O)c1cccs1` [Example 7, N-[(1S,2S)-1-(hydroxymethyl)-2-methylbutyl]thiophene-2-sulfonamide], for which the “APPI Fold Increase” value is 3.2 fold. Same read-out and setting: the result for “5-bromo-N-{(S,S)-1-[R-1-hydroxyethyl]-2-methylbutyl}thiophene-2-sulfonamide [Example 191]” reads 5.4 fold and 4.8 fold; that for `CCC[C@H](O)[C@@H](NS(=O)(=O)c1ccc(Br)s1)[C@@H](C)CC` [Example 192, 5-bromo-N-{(S,S)-2-hydroxy-1-[(S)-1-methylpropyl]pentyl}thiophene-2-sulfonamide], 2.2 fold and 1.9 fold and 1.7 fold; that for `CCC[C@@H](O)[C@@H](NS(=O)(=O)c1ccc(Cl)s1)[C@@H](C)CC` [Example 187, 5-chloro-N-{(S,R)-2-hydroxy-1-[(S)-1-methylpropyl]pentyl}thiophene-2-sulfonamide], 5.7 fold and 3 fold. For the compound “5-chloro-N-{(S,S)-2-hydroxy-1-[(S)-1-methylpropyl]pent-4-enyl}thiophene-2-sulfonamide [Example 188]”, the “APPI Fold Increase” value was 6.3 fold and 3.6 fold.

The assay is the same for the next values; noted with them: Conc 20 μg/mL; luciferase activity over diluent control; read-out: APPI Fold Increase.
Consider `C[C@@H](O)[C@@H](CO)NS(=O)(=O)c1ccc(Br)s1` [Example 117, 5-bromo-N-[(R,R)-2-hydroxy-1-(hydroxymethyl)propyl]thiophene-2-sulfonamide], for which the fold induction at 20 µg/mL was 2.6. On to `C[C@@H](c1ccco1)[C@@H](CO)NS(=O)(=O)c1ccc(Br)s1` [Example 70, 5-bromo-N-[(1S,2R)-2-(2-furyl)-1-(hydroxymethyl)propyl]thiophene-2-sulfonamide], for which the fold induction at 20 µg/mL was determined as 4.6. As for `CSCC[C@@H](CO)NS(=O)(=O)c1ccc(Br)s1` [Example 111, 5-bromo-N-[(S)-1-(hydroxymethyl)-3-(methylthio)propyl]thiophene-2-sulfonamide], the fold induction at 20 µg/mL is 1.8. On the same count and under the same terms, under `CC[C@H](C)[C@H](NS(=O)(=O)c1ccc(Cl)s1)C(O)C/C=C/c1ccccc1` (stereo partly drawn) [Example 161, 5-chloro-N-{(S,E)-2-hydroxy-1-[(S)-1-methylpropyl]-5-phenylpent-4-enyl}thiophene-2-sulfonamide] stands 2.6. As to `CC(C)(C)OC(=O)N1CCC([C@@H](CO)NS(=O)(=O)c2ccc(Cl)s2)CC1` [Example 209, 4-[1-(5-Chloro-thiophene-2-sulfonylamino)-2-hydroxy-ethyl]-piperidine-1-carboxylic acid tert-butyl ester], the fold induction at 20 µg/mL worked out at 2.1. On the same count and under the same terms, the result for `CCCCC[C@H](C)[C@@H](CO)NS(=O)(=O)c1ccc(Cl)s1` [Example 39, 5-chloro-N-[(1S,2S)-1-(hydroxymethyl)-2-methylheptyl]thiophene-2-sulfonamide] reads 5.7.

In the case of `CC(C)C[C@@H](c1ccccc1)[C@@H](CO)NS(=O)(=O)c1ccc(Cl)s1` [Example 47, 5-chloro-N-[(1S,2S)-1-(hydroxymethyl)-4-methyl-2-phenylpentyl]thiophene-2-sulfonamide], the fold induction at 20 µg/mL is 5.4. The same measure, in the same setting: the result for `CC[C@H](CC(C)C)[C@@H](CO)NS(=O)(=O)c1ccc(Br)s1` [Example 59, 5-bromo-N-[(1S,2R)-2-ethyl-1-(hydroxymethyl)-4-methylpentyl]thiophene-2-sulfonamide] reads 4.5; that for `CCCCCC[C@@H](CC)[C@@H](CO)NS(=O)(=O)c1ccc(Br)s1` [Example 78A, 5-bromo-N-[(1S,2R)-2-ethyl-1-(hydroxymethyl)octyl]thiophene-2-sulfonamide], 5.8; that for `CC[C@@H](CO)NS(=O)(=O)c1ccc(Cl)s1` [Example 100, 5-chloro-N-[(S)-1-(hydroxymethyl)propyl]thiophene-2-sulfonamide], 1.5. In the case of `O=S(=O)(NC1(CO)CC2CCC1C2)c1ccc(Br)s1` (stereo not shown) [Example 182, 5-bromo-N-[2-(hydroxymethyl)bicyclo[2.2.1]hept-2-yl]thiophene-2-sulfonamide], the fold induction at 20 µg/mL was 4.2.

Regarding `CCCCC[C@H](c1ccccc1)[C@@H](CO)NS(=O)(=O)c1ccc(Cl)s1` [Example 45, 5-chloro-N-[(1S,2R)-1-(hydroxymethyl)-2-phenylheptyl]thiophene-2-sulfonamide], the fold induction at 20 µg/mL is 2.1.

Consider `CC[C@@H](c1ccco1)[C@@H](CO)NS(=O)(=O)c1ccc(Cl)s1` [Example 49, 5-chloro-N-[(1S,2R)-2-(2-furyl)-1-(hydroxymethyl)butyl]thiophene-2-sulfonamide], for which the fold induction at 20 µg/mL was found to be 6.1. Turning to `CC[C@H](C)[C@@H](CO)NS(=O)(=O)c1ccc(I)s1` [Example 207, N-[(1S,2S)-1-(Hydroxymethyl)-2-methylbutyl]-5-iodo-2-thiophenesulfonamide], the fold induction at 20 µg/mL worked out at 5.6. Same read-out and setting: the result for `O=S(=O)(NC1(CO)CCCCC1)c1ccc(Br)s1` [Example 181, 5-bromo-N-[1-(hydroxymethyl)cyclohexyl]thiophene-2-sulfonamide] reads 2.6; that for `CCCCCC[C@@H](c1ccco1)[C@@H](CO)NS(=O)(=O)c1ccc(Br)s1` [Example 73, 5-bromo-N-[(1S,2R)-2-(2-furyl)-1-(hydroxymethyl)octyl]thiophene-2-sulfonamide], 1.9; that for `CCCC(CO)NS(=O)(=O)c1ccc(Br)s1` (racemic) [Example 112, 5-bromo-N-[1-(hydroxymethyl)butyl]thiophene-2-sulfonamide], 1.6.

As for `CCCCC[C@H](CC)[C@@H](CO)NS(=O)(=O)c1ccc(Br)s1` [Example 62, 5-bromo-N-[(1S,2S)-2-ethyl-1-(hydroxymethyl)heptyl]thiophene-2-sulfonamide], the fold induction at 20 µg/mL was determined as 4.5. Still for that read-out and setting: the result for `O=S(=O)(N[C@H](CO)C1CCC(NCc2cccnc2)CC1)c1ccc(Cl)s1` (stereo partly drawn) [Example 216, 5-chloro-N-[(S)-2-hydroxy-1-(4-(3-pyridyl)methylaminocyclohexyl)ethyl]thiophene-2-sulfonamide] reads 1.5; that for `CC[C@H](C)[C@@H](/C=N\O)NS(=O)(=O)c1ccc(Cl)s1` [Example 229], 6.3; that for `C[C@@H](O)[C@@H](CO)NS(=O)(=O)c1ccc(Cl)s1` [Example 103, 5-chloro-N-[(R,R)-2-hydroxy-1-(hydroxymethyl)propyl]thiophene-2-sulfonamide], 2.3. With `O=S(=O)(N[C@H](CO)c1ccccc1)c1ccc(Cl)s1` [Example 89, 5-Chloro-N-[(S)-2-hydroxy-1-phenylethyl]thiophene-2-sulfonamide], the fold induction at 20 µg/mL was 2.3. The same measure, in the same setting: the result for `CC[C@H](C)[C@H](NS(=O)(=O)c1ccc(Cl)s1)C(O)C(F)(F)F` (stereo partly drawn) [Example 196, 5-Chloro-N-[(S,S)-2-methyl-1-(2,2,2-trifluoro-1-hydroxyethyl)butyl]thiophene-2-sulfonamide] reads 20.7. On the same count and under the same terms, under `CCC[C@H](CC(C)C)[C@@H](CO)NS(=O)(=O)c1ccc(Br)s1` [Example 61, 5-bromo-N-[(1S,2R)-1-(hydroxymethyl)-4-methyl-2-propylpentyl]thiophene-2-sulfonamide] stands 5.7; under `CCC(CO)(CO)NS(=O)(=O)c1ccc(Cl)s1` [Example 93, N-[1,1-bis(hydroxymethyl)propyl]-5-chlorothiophene-2-sulfonamide], 2; under `CCCCCC[C@@H](CCCCC)[C@@H](CO)NS(=O)(=O)c1ccc(Cl)s1` [Example 44, 5-chloro-N-[(1S,2R)-1-(hydroxymethyl)-2-pentyloctyl]thiophene-2-sulfonamide], 1.6. `CC[C@H](C)[C@@H](/C=N/O)NS(=O)(=O)c1ccc(Cl)s1` [Example 230]: the fold induction at 20 µg/mL was determined as 4.8.
